In patent US20110038884A1, “IMMUNOPOTENTIATING AGENT COMPRISING EP1 AGONIST” (NATIONAL UNIVERSITY CO., HAMAMATSU UNIVER. SCHOOL OF …, priority 2008, published 2011):

Assays:
[1] = system: TRP-2-specific CTLs in cervical lymph nodes; assay: Activation of cytotoxic T lymphocytes in cervical lymph nodes: TRP-2-specific CTL frequency by tetramer flow cytometry after tape stripping; type: in vivo, C57BL/6 (B6) mice; conditions: relative to 100 = total mononucleocytes in cervical lymph nodes; one week after application to tape-stripped auricles; TRP-2 10 mg per side, Compound A 20 μL of 100 μM per side
Experimental: The corneal layer of the auricles of C57BL/6 (B6) mice was destroyed by repeatedly carrying out (ten times) a stripping operation using adhesive tape, following which an antigen peptide or EP1 agonist was applied as a test substance. Using a solution obtained by dissolving a melanoma-specific antigen peptide (available from Peptide Business Department, Accord K.K.; abbreviated below as TRP-2) as the antigen peptide in 70% ethanol, 10 mg of the antigen peptide was applied per side of an auricle. […] One week after application of the test substance, the cervical lymph nodes were removed. The TRP-2-specific CTL frequency, relative to an arbitrary value of 100 representing the total number of mononucleocytes in the cervical lymph nodes, was determined by flow cytometric analysis (FACScaliber; Becton, Dickinson and Company) with a tetramer (Medical & Biological Laboratories Co., Ltd.). Four experimental groups were established: (1) a group in which only tape stripping (abbreviated below as TS) was carried out, (2) a group in which TRP-2 was applied after TS, (3) a group in which Compound A was applied after TS, and (4) a group in which TRP-2 and Compound A were applied after TS.

B16 melanoma cells = assay: Life-prolonging effects in melanoma-inoculated mice; type: in vivo, B6 mice; conditions: 8 animals per group
Experimental: B16 melanoma cells (2×10^5) were transplanted into B6 mice in the same way as in Example 4. On day 5 after transplantation, the respective test substances (TRP-2 (10 μg per side of an auricle), Compound A (20 μL of a 100 μM solution per side of an auricle)) were administered to the right auricles in B6 mice by the same method as in Example 2. The same treatment was carried out ten days later on the left auricle, following which the survival of the mice in each experimental group was examined. The following groups were established as experimental groups (each group being composed of 8 animals): (1) a group in which only TS was carried out, (2) a group in which compound A was applied after TS, and (3) a group in which TRP-2 and Compound A were applied after TS.

B7-1 (CD80) = assay: Expression of cell-surface molecules in cultured Langerhans cells (flow cytometry): B7-1; type: cell-based, C57BL/6 mice; conditions: Compound A 1 μM, Langerhans cells cultured a half-day; control group 5.9
Experimental: (§1) Using the same procedure as in Example 2 above, the Langerhans cells of C57BL/6 (36) mice were isolated, following which Compound A (1 μM) was added as an EP1 agonist and the cells were cultured for a half-day in a culture medium (cRPMI1640 medium; Sigma-Aldrich Japan). The cultured cells were then stained using antibodies specific to the cell-surface molecules I-A^b, B7-1 (CD80), B7-2 (CD86), CD40 and ICAM-1 (CD54), and changes in the expression of these molecules were analyzed by flow cytometry. An experimental group treated in the same way, excluding the addition of Compound A, was established as a control.

B7-2 (CD86) = assay: Expression of cell-surface molecules in cultured Langerhans cells (flow cytometry): B7-2; type: cell-based, C57BL/6 mice; conditions: Compound A 1 μM, Langerhans cells cultured a half-day; control group 65.5
Experimental: as §1

NK1.1+ cells = assay: Activation of NK1.1+ cells in cervical lymph nodes; type: in vivo, B6 mice; conditions: relative to 100 = total mononucleocytes in cervical lymph nodes; two weeks after application of 20 μL of 100 μM per side after TS; TS-only group 2.7
Experimental: As in Example 1, the corneal layer of the auricles of B6 mice was destroyed by repeatedly stripping ten times using adhesive tape, following which an EP1 agonist (Compound A: 20 μL of a 100 μM solution per side of an auricle) was applied as the test substance. Two weeks after application of the test substance, the cervical lymph nodes were removed. The frequency of NK1.1+ cells, relative to an arbitrary value of 100 representing the total number of mononucleocytes in the cervical lymph nodes, was determined by flow cytometric analysis. The following groups were established as experimental groups: (1) a group in which only TS was carried out, and (2) a group in which Compound A was applied after TS.

ICAM-1 (CD54) = assay: Expression of cell-surface molecules in cultured Langerhans cells (flow cytometry): ICAM-1; type: cell-based, C57BL/6 mice; conditions: Compound A 1 μM, Langerhans cells cultured a half-day; control group 36.5
Experimental: as §1

I-A^b = assay: Expression of cell-surface molecules in cultured Langerhans cells (flow cytometry): I-A^b; type: cell-based, C57BL/6 mice; conditions: Compound A 1 μM, Langerhans cells cultured a half-day; control group 12.1
Experimental: as §1

CD40 = assay: Expression of cell-surface molecules in cultured Langerhans cells (flow cytometry): CD40; type: cell-based, C57BL/6 mice; conditions: Compound A 1 μM, Langerhans cells cultured a half-day; control group 28.7
Experimental: as §1

splenic lymphocytes = assay: Splenic lymphocyte proliferative ability test (WST-1); type: in vivo, B6 mice; conditions: cell proliferation ratio; splenic lymphocytes recovered one week after application after TS, cultured 3 days with IL-2 (10 U/mL); TS-only group 4.2
Experimental: As in Example 6, TS was carried out, after which Compound A (20 μL of a 100 μM solution per side of an auricle) was applied as the substance. One week after application of the test substance, splenic lymphocytes were recovered, then cultured at 37° C. for 3 days in a culture medium (cRPMI1640 medium: Sigma-Aldrich Japan) containing IL-2 (10 U/mL). Cell proliferative ability tests were carried out using WST-1 (Takara Bio Inc.) as the cell proliferation reagent (absorbance at 450 nm). Experimental groups similar to those in Example 6 were established (with each group containing three animals).
The relative values of the absorption intensities in each experimental group, based on an arbitrary value of 1 for the absorbance at 450 nm when all of the WST-1 added had decomposed to formazan, indicate the percent uptake of WST-1; that is, the cell proliferation ratio.

NP-pulsed EL4 cells = assay: NP-specific CTL specific lysis of calcein-labeled EL4 cells, NP pulsed; type: in vivo, C57BL/6 (B6) mice; conditions: NP-pulsed EL4 cells (10 μg/mL NP), 3 hours
[2] = system: EL4 cells not subjected to NP pulsing; assay: NP-specific CTL specific lysis of calcein-labeled EL4 cells, not NP pulsed; type: in vivo, C57BL/6 (B6) mice; conditions: 3 hours
[3] = system: isolated epidermal Langerhans cells; assay: Activation of cytotoxic T lymphocytes in isolated Langerhans cells co-cultured with lymphocytes; type: cell-based, C57BL/6 (B6) mouse; conditions: relative to 100 = total mononucleocytes in culture medium; TRP-2 10 μg/mL, Compound A 1 μM; 7 days co-culture
Experimental: An epidermal cell suspension was prepared by trypsinizing an auricle epidermal sheet removed over a given surface area from the corneal layer on one of the auricles in C57BL/6 (B6) mouse. The resulting epidermal cell suspension was subjected to panning using an antibody specific for I-A^b antigen in order to isolate epidermal Langerhans cells. Each test substance (TRP-2 (concentration, 10 μg/mL) and Compound A (1 μM)) was added to the isolated Langerhans cells (cell density, 10^5 cells/mL), following which the cells were cultured in a culture medium (cRPMI1640 medium; Sigma-Aldrich Japan). After a half-day, the cells were then co-cultured for 7 days with spleen cell lymphocytes isolated from the cervical lymph nodes of B6 mice. The frequency of TRP-2-specific CTLs, relative to an arbitrary value of 100 representing the total number of mononucleocytes in the culture medium, was subsequently determined by flow cytometric analysis (FACScaliber; Becton, Dickinson and Company) with a tetramer (Medical & Biological Laboratories Co., Ltd.). The following groups were established as experimental groups: (1) an untreated group, (2) a group in which TRP-2 was added, and (3) a group in which TRP-2 and Compound A were both added.

## CCCC[C@H](C)C[C@H](O)/C=C/[C@H]1[C@H](O)CC(=O)[C@@H]1CC(=O)C1CCC(C(=O)O)CC1 (stereo partly drawn) [Compound A, (13E)-(11α,15S,17S)-2,5-Ethano-6,9-dioxo-11,15-dihydroxy-17,20-dimethylprosta-13-enoic acid]
[1]
  Ratio of TRP-2-specific CTLs: 0.53
B16 melanoma cells; day 14 after inoculation of B16 melanoma cells
  Number of survivors: 8
B16 melanoma cells; day 16 after inoculation of B16 melanoma cells
  Number of survivors: 8
B16 melanoma cells; day 24 after inoculation of B16 melanoma cells
  Number of survivors: 8
B16 melanoma cells; day 25 after inoculation of B16 melanoma cells
  Number of survivors: 8
B16 melanoma cells; day 28 after inoculation of B16 melanoma cells
  Number of survivors: 8
B16 melanoma cells; day 30 after inoculation of B16 melanoma cells
  Number of survivors: 8
B16 melanoma cells; day 32 after inoculation of B16 melanoma cells
  Number of survivors: 8
B16 melanoma cells; day 34 after inoculation of B16 melanoma cells
  Number of survivors: 8
B16 melanoma cells; day 36 after inoculation of B16 melanoma cells
  Number of survivors: 4
B16 melanoma cells; day 38 after inoculation of B16 melanoma cells
  Number of survivors: 0
B16 melanoma cells; day 41 after inoculation of B16 melanoma cells
  Number of survivors: 0
B16 melanoma cells; day 44 after inoculation of B16 melanoma cells
  Number of survivors: 0
B16 melanoma cells; day 46 after inoculation of B16 melanoma cells
  Number of survivors: 0
B16 melanoma cells; day 50 after inoculation of B16 melanoma cells
  Number of survivors: 0
B16 melanoma cells; day 52 after inoculation of B16 melanoma cells
  Number of survivors: 0
B16 melanoma cells; day 55 after inoculation of B16 melanoma cells
  Number of survivors: 0
B16 melanoma cells; day 56 after inoculation of B16 melanoma cells
  Number of survivors: 0
B7-1 (CD80)
  Expression of each cell-surface molecule (%): B7-1: 8.8%
B7-2 (CD86)
  Expression of each cell-surface molecule (%): B7-2: 65.2%
NK1.1+ cells
  Ratio of NK1.1+ cells: 3.6
ICAM-1 (CD54)
  Expression of each cell-surface molecule (%): ICAM-1: 46.3%
I-A^b
  Expression of each cell-surface molecule (%): I-A^b: 28.3%
CD40
  Expression of each cell-surface molecule (%): CD40: 30.8%
Splenic lymphocytes
  Uptake of WST-1 (%): 27.3%

## NP: influenza virus-specific antigen peptide, nucleoprotein (NP) 366-374, Ala Ser Asn Glu Asn Met Glu Thr Met (ASNENMETM; UniProt P03466 366-374, looked up, fragment)
NP-pulsed EL4 cells
  Specific lysis: 11.9%
[2]
  Specific lysis: 1.2%

## TRP-2: melanoma-specific antigen peptide, tyrosinase-related protein 2 181-188, Val Tyr Asp Phe Phe Val Trp Leu (VYDFFVWL; Tyrosinase-related protein 2 residues 181-188) [reference compound]
[1]
  Ratio of TRP-2-specific CTLs: 0.44
[3]
  Ratio of TRP-2-specific CTLs: 3.2
